These results are taken from patent publication US10485236B2, “Triazole derivatives, intermediates thereof and their use as fungicides” (Bayer CropScience Aktiengesellschaft, priority 2015, dated 2019).

Each structure is given as a SMILES string. Marks after values point to notes of the source that are not given here.

System in the first data set: not listed separately
Description: Measurement of LogP values by HPLC on reversed phase columns (EEC directive 79/831 Annex V.A8). In kind it is physicochemical.
Conditions: not given
The method in brief:
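Calibrated with straight-chain alkan-2-ones (3–16 carbons) of known LogP, using retention times with linear interpolation between successive alkanones. Where one method gives several LogP values, all are listed, joined by "+". Lambda-max taken from UV spectra (200–400 nm) at chromatographic peak maxima.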
Regarding `O=C(CCl)c1ccc(Oc2ccc(OC(F)(F)F)cc2)nc1Cl` [VI.08], the LogP is 4.09^[a]. Same read-out and setting: the value for `OC(Cn1cncn1)c1cnc(Oc2ccc(C(F)(F)F)cc2)cc1C(F)(F)F` (single isomer, unassigned) [I.92] was 2.86^[a]; that for `CC(=O)c1cnc(Oc2ccc(S(F)(F)(F)(F)F)cc2)cc1C(F)(F)F` [V.03] was 4.32^[a]. Same read-out and setting: the value for `O=C(CCl)c1ccc(Oc2ccc(Cl)cc2)nc1Cl` [VI.04] was 3.72^[a]; that for `CC(O)(Cn1cncn1)c1cnc(Oc2ccc(Cl)cc2)cc1Cl` (racemic) [I.08] was 2.50^[a]; that for `O=C(c1ccc(Oc2ccc(S(F)(F)(F)(F)F)cc2)nc1C(F)(F)F)C1CC1` [V.43] was 4.67^[a]. As to `O=C(CCl)c1cnc(Oc2ccc(Cl)cc2)cc1Cl` [VI.06], the LogP was 3.77^[a]. Take `CC(=O)c1ccc(Oc2ccc(C(F)F)cc2)nc1C(F)(F)F` [V.32]: the LogP was 3.26^[a].

`OC(Cn1cncn1)c1ccc(Oc2ccc(Cl)cc2F)nc1C(F)(F)F` (stereo not shown) [I.90]: the LogP was 2.88^[a].

In the case of `O=C(CBr)c1ccc(Oc2ccc(C(F)F)cc2)nc1Cl` [VI.17], the LogP was 3.57^[a]. With `OC(Cn1cncn1)c1ncc(Oc2ccccc2)cc1Cl` (racemic) [I.22], the LogP is 2.01^[a]. The same measure, in the same setting: the value for `OC(Cn1cncn1)c1cnc(Oc2ccc(C(F)(F)F)cc2)cc1Cl` (stereo not shown) [I.88] was 2.64^[a]. Same read-out and setting: the value for `CC(C)c1ccc(Oc2ccc(C(=O)Cn3cncn3)c(C(F)(F)F)n2)cc1` [VII.34] was 3.44^[a].

For `CC(=O)c1cnc(Oc2ccc(Cl)cc2F)cc1C(F)(F)F` [V.07], the LogP is 4.09^[a]. The same measure, in the same setting: the value for `O=C(CCl)c1ccc(Oc2ccc(F)cc2)nc1Cl` [VI.09] was 3.39^[a]. The same measure, in the same setting: the figure for `OC(Cn1cncn1)c1cnc(Oc2ccc(Br)cc2)cc1C(F)(F)F` (stereo not shown) [I.48] is 2.75^[a]. On the same count and under the same terms, the value for `CC(=O)c1cnc(Oc2ccc(Cl)cc2)cc1Cl` [V.22] was 3.51^[a]; that for `OC(Cn1cncn1)(c1ccc(Oc2ccc(C(F)(F)F)cc2)nc1C(F)(F)F)C1CC1` (stereo not shown) [I.87] was 3.57^[a].

Regarding `CC(=O)c1ccc(Oc2ccc(Cl)cc2F)nc1C(F)(F)F` [V.38], the LogP is 3.87^[a].

For `CC(O)(Cn1cncn1)c1ccc(Oc2ccc(Cl)cc2)nc1C(F)(F)F` (stereo not shown) [I.96], the LogP is 2.68^[a].

Regarding `CC(=O)c1ccc(Oc2ccc(C(F)F)cc2)nc1Cl` [V.14], the LogP is 3.15^[a]. `OC(Cn1cncn1)c1cnc(Oc2ccc(S(F)(F)(F)(F)F)cc2)cc1C(F)(F)F` (single isomer, unassigned) [I.83]: the LogP is 3.11^[a]. Still for that read-out and setting: the value for `CC(=O)c1cnc(Oc2ccc(Br)cc2)cc1C(F)F` [V.36] was 3.74^[a]. Still for that read-out and setting: the value for `OC(Cn1cncn1)(c1ccc(Oc2ccc(Br)cc2)nc1C(F)(F)F)C1CC1` (single isomer, unassigned) [Example 1.84] was 3.41^[a]; that for `O=C(CCl)c1ccc(Oc2ccc(C(F)(F)F)cc2)nc1C(F)(F)F` [VI.28] was 4.19^[a]. On to `CC(O)(Cn1cncn1)c1ccc(Oc2ccc(Br)cc2)nc1C(F)(F)F` (single isomer, unassigned) [I.101], for which the LogP was 2.94^[a]. On the same count and under the same terms, the figure for `Cc1cc(Cl)ccc1Oc1ccc(C(C)(O)Cn2cncn2)c(Cl)n1` (racemic) [I.28] is 2.94^[a]; for `O=C(CCl)c1cnc(Oc2ccc(C(F)(F)F)cc2)cc1C(F)(F)F` [VI.22] it is 4.21^[a].

`CC(=O)c1cnc(Oc2ccc(C(F)(F)F)cc2)cc1C(F)(F)F` [V.25]: the LogP is 4.04^[a]. On the same count and under the same terms, the figure for `OC(Cn1cncn1)(c1ccc(Oc2ccc(Cl)cc2)nc1C(F)(F)F)C1CC1` (stereo not shown) [I.71] is 3.35^[a]; for `CC(=O)c1cnc(Oc2ccc(Br)cc2)cc1C(F)(F)F` [V.27] it is 3.99^[a]; for `CCCC(O)(Cn1cncn1)c1ccc(Oc2ccc(Cl)cc2)nc1C(F)(F)F` (stereo not shown) [I.100] it is 3.55^[a].

`OC(Cn1cncn1)(c1ccc(Oc2ccc(Br)cc2)nc1C(F)(F)F)C1CC1` (single isomer, unassigned) [I.99]: the LogP is 3.41^[a]. Still for that read-out and setting: the figure for `CC(O)(Cn1cncn1)c1ccc(Oc2ccc(Cl)cc2)nc1Cl` (single isomer, unassigned) [I.51] is 2.62^[a]; for `O=C(Cn1cncn1)c1ccc(Oc2ccc(OC(F)(F)F)cc2)nc1C(F)(F)F` [VII.39] it is 2.95^[a].

As to `CC(=O)c1ccc(Oc2ccc(Br)cc2)nc1C(F)F` [V.34], the LogP was 3.46^[a]. Same read-out and setting: the figure for `CC(=O)c1cnc(Oc2ccc(C(F)(F)F)cc2)cc1Cl` [V.18] is 3.87^[a]; for `CCC(O)(Cn1cncn1)c1ccc(Oc2ccc(Cl)cc2)nc1C(F)(F)F` (stereo not shown) [I.103] it is 3.19^[a]. Turning to `CCCCC(O)(Cn1cncn1)c1ccc(Oc2ccc(Cl)cc2)nc1C(F)(F)F` (stereo not shown) [I.98], the LogP is 3.87^[a]. On the same count and under the same terms, the value for `OC(Cn1cncn1)c1ccc(Oc2ccc(C(F)F)cc2)nc1Cl` (stereo not shown) [I.38] was 2.17^[a]; that for `OC(Cn1cncn1)c1ccc(Oc2ccc(OC(F)(F)F)c(Cl)c2)nc1Cl` (racemic) [I.11] was 3.11^[a]; that for `CC(=O)c1cnc(Oc2ccc(Cl)cc2)cc1C(C)=O` [V.19] was 3.11^[a].

The data set is the same for the next values; noted with them: reversed phase HPLC column, method [a]: LC-UV, acidic range, 0.1% formic acid in water and acetonitrile as eluent.
For orientation: chromatographic logP means a lipophilicity value derived from retention on a column. Low readings indicate a more hydrophilic compound, high ones a more lipophilic compound. Take `OC(Cn1cncn1)c1cnc(Oc2ccc(Cl)cc2)cc1C(F)(F)F` (stereo not shown) [I.04, 1-[6-(4-chlorophenoxy)-4-(trifluoromethyl)-3-pyridyl]-2-(1,2,4-triazol-1-yl)ethanol]: the chromatographic logP worked out at 2.68.

The same data set, now with this note: reversed phase HPLC column, method [a]; compounds of formula (VI), Table 3.
As to `O=C(CCl)c1ccc(Oc2ccc(Cl)cc2)nc1C(F)(F)F` [VI.01, 2-chloro-1-[6-(4-chlorophenoxy)-2-(trifluoromethyl)-3-pyridyl]ethanone], the chromatographic logP turned out to be 4.01.

The same data set, now with this note: reversed phase HPLC column, method [a]; compounds of formula (VII), Table 4.
In turn, `O=C(Cn1cncn1)c1cnc(Oc2ccc(Cl)cc2)cc1C(F)(F)F` [VII.02, 1-[6-(4-chlorophenoxy)-4-(trifluoromethyl)-3-pyridyl]-2-(1,2,4-triazol-1-yl)ethanone] displayed a chromatographic logP of 2.92.

The subject of a further data set is Uromyces appendiculatus. Kind of data set: Example E: in vivo preventive test on Uromyces appendiculatus (bean rust). The following applies: 264 h, 500 ppm of active ingredient, bean plants, preventive spray, evaluated 11 days after inoculation, read-out: efficacy. The protocol:
(§1) Example E: In Vivo Preventive Test on Uromyces appendiculatus (Bean Rust) [table] The active ingredients are made soluble and homogenized in a mixture of Dimethyl sulfoxide/Acetone//Tween® 80 and then diluted in water to the desired concentration. The young plants of bean are treated by spraying the active ingredient prepared as described above. Control plants are treated only with an aqueous solution of Acetone/Dimethyl sulfoxide/Tween® 80. After 24 hours, the plants are contaminated by spraying the leaves with an aqueous suspension of Uromyces appendiculatus spores. The contaminated bean plants are incubated for 24 hours at 20° C. and at 100% relative humidity and then for 10 days at 20° C. and at 70-80% relative humidity. The test is evaluated 11 days after the inoculation. 0% means an efficacy which corresponds to that of the control plants while an efficacy of 100% means that no disease is observed.
Regarding `OC(Cn1cncn1)c1cnc(Oc2ccc(Cl)cc2)cc1C(F)(F)F` (stereo not shown) [I.04, 1-[6-(4-chlorophenoxy)-4-(trifluoromethyl)-3-pyridyl]-2-(1,2,4-triazol-1-yl)ethanol], the pest or weed control at 500 ppm was 90 to 100%. The same measure, in the same setting: the figure for `O=C(Cn1cncn1)c1cnc(Oc2ccc(Cl)cc2)cc1C(F)(F)F` [VII.02, 1-[6-(4-chlorophenoxy)-4-(trifluoromethyl)-3-pyridyl]-2-(1,2,4-triazol-1-yl)ethanone] is 80 to 89%.

Another data set deals with Sphaerotheca fuliginea. Description: Example M: in vivo preventive test on Sphaerotheca (cucumbers); comparison of phenoxy-pyridyl compounds vs. known phenoxy-phenyl compounds. The settings on record: Podosphaera fuliginea, 168 h, rate of application 10 ppm, evaluated 7 days after inoculation, read-out: Efficacy in %. On the procedure: Example M: In Vivo Preventive Test on Sphaerotheca (Cucumbers); Comparison of Phenoxy-pyridyl Compounds According to the Invention Vs. Known Phenoxy-phenyl Compounds [table] To produce a suitable preparation of active compound, 1 part by weight of active compound is mixed with the above stated amounts of solvent and emulsifier, and the concentrate is diluted with water to the desired concentration. To test for preventive activity, young plants are sprayed with the preparation of active compound at the stated rate of application. After the spray coating has dried on, the plants are inoculated with an aqueous spore suspension of Sphaerotheca fuliginea. The plants are then placed in a greenhouse at approximately 23° C. and a relative atmospheric humidity of approximately 70%. The test is evaluated 7 days after the inoculation. 0% means an efficacy which corresponds to that of the untreated control, while an efficacy of 100% means that no disease is observed. [table]
For `CC(O)(Cn1cncn1)c1ccc(Oc2ccc(Cl)cc2)cc1C(F)(F)F` (stereo not shown) [reference compound], the pest or weed control at 10 ppm was found to be 30%.

The next data set deals with Puccinia recondita. Kind of data set: Example B: in vivo preventive test on Puccinia recondita (brown rust on wheat). The settings on record: 264 h, 500 ppm of active ingredient, wheat plants, preventive spray, evaluated 11 days after inoculation, read-out: efficacy. The protocol: as §1, with “B:” for “E:”, “Puccinia recondita (Brown Rust on Wheat)” for “Uromyces appendiculatus (Bean Rust)”, “wheat” for “bean”, “Puccinia recondita” for “Uromyces appendiculatus”
As to `OC(Cn1cncn1)c1cnc(Oc2ccc(Cl)cc2)cc1C(F)(F)F` (stereo not shown) [I.04, 1-[6-(4-chlorophenoxy)-4-(trifluoromethyl)-3-pyridyl]-2-(1,2,4-triazol-1-yl)ethanol], the pest or weed control at 500 ppm was 90 to 100%. With `O=C(Cn1cncn1)c1cnc(Oc2ccc(Cl)cc2)cc1C(F)(F)F` [VII.02, 1-[6-(4-chlorophenoxy)-4-(trifluoromethyl)-3-pyridyl]-2-(1,2,4-triazol-1-yl)ethanone], the pest or weed control at 500 ppm was in the range of 90 to 100%.

The test system of another data set is Sphaerotheca fuliginea. Description: Example D: in vivo preventive test on Sphaerotheca fuliginea (powdery mildew on cucurbits). The settings on record: Podosphaera fuliginea, 360 h; 500 ppm of active ingredient; gherkin plants, preventive spray; evaluated 15 days after inoculation; read-out: efficacy. On the procedure:
Example D: In Vivo Preventive Test on Sphaerotheca fuliginea (Powdery Mildew on Cucurbits) [table] The active ingredients are made soluble and homogenized in a mixture of Dimethyl sulfoxide/Acetone//Tween® 80 and then diluted in water to the desired concentration. The young plants of gherkin are treated by spraying the active ingredient prepared as described above. Control plants are treated only with an aqueous solution of Acetone/Dimethyl sulfoxide/Tween® 80. After 24 hours, the plants are contaminated by spraying the leaves with an aqueous suspension of Sphaerotheca fuliginea spores. The contaminated gherkin plants are incubated for 72 hours at 18° C. and at 100% relative humidity and then for 12 days at 20° C. and at 70-80% relative humidity. The test is evaluated 15 days after the inoculation. 0% means an efficacy which corresponds to that of the control plants while an efficacy of 100% means that no disease is observed.
Regarding `OC(Cn1cncn1)c1cnc(Oc2ccc(Cl)cc2)cc1C(F)(F)F` (stereo not shown) [I.04, 1-[6-(4-chlorophenoxy)-4-(trifluoromethyl)-3-pyridyl]-2-(1,2,4-triazol-1-yl)ethanol], the pest or weed control at 500 ppm was 90 to 100%. On the same count and under the same terms, the value for `O=C(Cn1cncn1)c1cnc(Oc2ccc(Cl)cc2)cc1C(F)(F)F` [VII.02, 1-[6-(4-chlorophenoxy)-4-(trifluoromethyl)-3-pyridyl]-2-(1,2,4-triazol-1-yl)ethanone] was 90 to 100%.
